The values that follow are results of earlier work, collected in patent publication US20110146671A1, “PHARMACEUTICAL COMPOSITIONS AND METHODS OF DELIVERING THE SAME” (priority 2006, published 2011).

SMILES strings stand for the structures. Counter-ions that a name gives are not always drawn.

In the data set the test system is patients with perennial allergic rhinitis. The following applies: 1% solution in normal saline, nasal wash every 48 hours for 4 weeks, versus placebo wash (normal saline only).

Regarding `CN[C@@H](C)[C@H](O)c1ccccc1` [ephedrine hydrochloride], the “peak nasal inspiratory flow rates” value is given as “significant improvement” and the symptom scores entry is “significant improvement”.
